Read-outs that look alike come from different tables or passages of the source.
Columns and labels:
[1] = target: T1, baculovirus-expressed ALK (Homo sapiens, UniProt Q9UM73); test: ALK Kinase Assay (ELISA-type, time-resolved fluorescence); format: biochemical
T1 construct: host or cells: baculovirus expression system
Outline: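 Substrate coating: phospholipase C-γ, 10 μg/mL in TBS. Kinase step: 30 ng/ml ALK, 15 min, 37° C. Detection and analysis: Eu-N1 PT66 antibody, with IC50 fitted as a sigmoidal variable-slope dose-response curve.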

[2] = target: T2, c-Met (cytoplasmic domain) (Homo sapiens, UniProt P08581); test: c-Met Kinase Assay (same methods as for ALK, with modifications); format: biochemical
T2 construct: 10 ng/mL c-Met (cytoplasmic domain, Invitrogen Corporation #PV3143); purchased Invitrogen Corporation PV3143
T2 sequence (P08581 956-1390 limits assumed): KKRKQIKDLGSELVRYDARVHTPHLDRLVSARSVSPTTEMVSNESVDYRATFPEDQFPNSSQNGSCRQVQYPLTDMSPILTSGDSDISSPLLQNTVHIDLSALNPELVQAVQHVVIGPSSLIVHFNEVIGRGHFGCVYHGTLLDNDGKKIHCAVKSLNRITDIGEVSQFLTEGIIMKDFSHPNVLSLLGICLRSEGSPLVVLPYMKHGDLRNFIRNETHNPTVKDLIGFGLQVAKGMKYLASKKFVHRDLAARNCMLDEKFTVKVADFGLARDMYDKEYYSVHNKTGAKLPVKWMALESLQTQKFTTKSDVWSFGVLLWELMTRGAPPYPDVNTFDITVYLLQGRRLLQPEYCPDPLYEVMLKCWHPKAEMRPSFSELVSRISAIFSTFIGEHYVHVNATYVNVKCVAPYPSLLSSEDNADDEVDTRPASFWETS
Outline: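 This plate-based kinase format uses immobilized phospholipase C-γ as substrate, phosphorylated by c-Met cytoplasmic domain (10 ng/mL) at 37° C for 15 minutes.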

[3] = ALK kinase inhibition, 1 μM ATP, read-out: ALK Activity
[4] = c-Met kinase inhibition, 1 μM ATP, read-out: cMet Activity
[5] = 1 μM ATP (Km level), 30 ng/ml ALK, 37° C., 15 minutes, read-out: ALK Activity (ALK kinase inhibition, IC50 class)
[6] = 1 μM ATP (Km level), 10 ng/mL c-Met, read-out: cMet Activity (c-Met kinase inhibition, IC50 class)
[7] = 1 μM ATP (Km level), read-out: ALK Activity (ALK Kinase Inhibition, IC50)
[8] = 1 μM ATP (Km level), read-out: cMet Activity (c-Met Kinase Inhibition, IC50)

T1 sequence (Q9UM73 19-1620): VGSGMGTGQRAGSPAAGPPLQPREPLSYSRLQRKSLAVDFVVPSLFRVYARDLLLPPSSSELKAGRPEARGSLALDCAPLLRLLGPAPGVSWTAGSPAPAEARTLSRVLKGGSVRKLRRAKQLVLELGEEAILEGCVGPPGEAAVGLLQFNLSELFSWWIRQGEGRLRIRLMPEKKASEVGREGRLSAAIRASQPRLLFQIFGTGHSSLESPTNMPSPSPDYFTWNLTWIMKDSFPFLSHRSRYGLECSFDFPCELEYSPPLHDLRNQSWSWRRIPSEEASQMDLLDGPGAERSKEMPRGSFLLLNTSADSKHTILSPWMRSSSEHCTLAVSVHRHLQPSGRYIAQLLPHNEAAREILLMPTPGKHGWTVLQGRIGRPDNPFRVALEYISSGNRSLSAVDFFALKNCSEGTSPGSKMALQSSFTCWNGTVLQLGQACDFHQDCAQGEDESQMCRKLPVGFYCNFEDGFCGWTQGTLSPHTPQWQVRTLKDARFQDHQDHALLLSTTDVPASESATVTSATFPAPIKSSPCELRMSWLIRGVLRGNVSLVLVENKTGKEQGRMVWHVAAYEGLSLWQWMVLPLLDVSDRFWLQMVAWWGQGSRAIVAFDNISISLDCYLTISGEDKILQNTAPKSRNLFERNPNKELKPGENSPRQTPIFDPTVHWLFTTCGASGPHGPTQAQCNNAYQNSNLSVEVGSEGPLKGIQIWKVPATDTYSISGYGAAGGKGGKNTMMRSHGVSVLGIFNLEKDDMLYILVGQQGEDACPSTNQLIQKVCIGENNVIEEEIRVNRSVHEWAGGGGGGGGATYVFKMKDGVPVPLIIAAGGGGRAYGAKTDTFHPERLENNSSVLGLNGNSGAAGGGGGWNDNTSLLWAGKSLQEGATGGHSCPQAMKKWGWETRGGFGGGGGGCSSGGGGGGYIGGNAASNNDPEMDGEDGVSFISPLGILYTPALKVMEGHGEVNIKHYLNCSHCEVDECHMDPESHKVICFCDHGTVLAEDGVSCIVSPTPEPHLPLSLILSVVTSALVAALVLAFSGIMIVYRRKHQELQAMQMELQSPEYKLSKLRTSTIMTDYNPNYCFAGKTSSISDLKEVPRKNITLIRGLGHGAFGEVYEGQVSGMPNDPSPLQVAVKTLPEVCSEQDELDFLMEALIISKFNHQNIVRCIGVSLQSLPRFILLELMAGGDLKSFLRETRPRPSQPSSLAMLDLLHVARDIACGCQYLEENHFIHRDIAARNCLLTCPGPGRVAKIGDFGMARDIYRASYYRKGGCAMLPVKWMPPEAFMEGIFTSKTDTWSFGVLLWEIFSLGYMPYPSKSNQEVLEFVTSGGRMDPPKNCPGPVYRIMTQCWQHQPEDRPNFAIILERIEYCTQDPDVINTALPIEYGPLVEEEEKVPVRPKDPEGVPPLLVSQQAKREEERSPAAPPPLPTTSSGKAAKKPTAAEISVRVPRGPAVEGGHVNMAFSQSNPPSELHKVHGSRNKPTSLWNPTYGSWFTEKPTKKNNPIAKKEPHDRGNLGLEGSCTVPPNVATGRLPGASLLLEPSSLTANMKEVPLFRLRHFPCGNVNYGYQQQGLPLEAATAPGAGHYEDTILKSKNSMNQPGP

IC50 [1, 3] [nM] | IC50 [2, 4] [nM] | Compound | IC50 [1, 5] [nM] | IC50 [2, 6] [nM] | further results
< 100 | > 10000 | COc1cc2c(cc1Nc1ncc(Cl)c(N[C@H]3[C@@H](C(N)=O)[C@@H]4C=C[C@H]3C4)n1)CCN(CC(C)(C)O)CC2 [Example 1560, (1S,2S,3R,4R)-3-{5-Chloro-2-[3-(2-hydroxy-2-methyl-propyl)-8-methoxy-2,3,4,5-tetrahydro-1H-3-benzazepin-7-ylamino]-pyrimidin-4-ylamino}-bicyclo[2.2.1]hept-5-ene-2-carboxylic acid amide] |  |  | 
 |  | CCN1C(=O)CCCc2c1ccc(Nc1ncc(Cl)c(Nc3ccccc3-n3cccn3)n1)c2OC [Example 1319, 7-[5-Chloro-4-(2-pyrazol-1-yl-phenylamino)-pyrimidin-2-ylamino]-1-ethyl-6-methoxy-1,3,4,5-tetrahydro-benzo[b]azepin-2-one] | < 100 | > 10000 | 
 |  | COc1cc2c(cc1Nc1ncc(Cl)c(N[C@H]3[C@@H](C(N)=O)[C@@H]4C=C[C@H]3C4)n1)CCN(C(C)C)CC2 [Example 776, (1S,2S,3R,4R)-3-[5-Chloro-2-(3-isopropyl-8-methoxy-2,3,4,5-tetrahydro-1H-benzo[d]azepin-7-ylamino)-pyrimidin-4-ylamino]-bicyclo[2.2.1]hept-5-ene-2-carboxylic acid amide] |  |  | IC50 [1, 7]: < 100 nM; IC50 [2, 8]: > 10000 nM
< 100 | 1000 to 10000 | COCCN1C(=O)CCC(C)(C)c2ccc(Nc3ncc(Cl)c(Nc4ccc(N5CCOCC5)cc4OC)n3)cc21 [Example 1584, 8-[5-Chloro-4-(2-methoxy-4-morpholin-4-yl-phenylamino)-pyrimidin-2-ylamino]-1-(2-methoxy-ethyl)-5,5-dimethyl-1,3,4,5-tetrahydro-benzo[b]azepin-2-one] |  |  | 
100 to 1000 | 100 to 1000 | C#CCNC(=O)c1cccc(F)c1Nc1nc(Nc2ccc3c(c2)OCC(O)(CO)CN3CC)ncc1Cl (centres unmarked) [Example 1735, 2-[5-Chloro-2-(9-ethyl-7-hydroxy-7-hydroxymethyl-6,7,8,9-tetrahydro-5-oxa-9-aza-benzocyclohepten-3-ylamino)-pyrimidin-4-ylamino]-3-fluoro-N-prop-2-ynyl-benzamide] |  |  | 
 |  | COc1c(Nc2ncc(Cl)c(N[C@@H]3CCCC[C@H]3NS(C)(=O)=O)n2)ccc2c1CCC(N1CCOCC1)CC2 (mixture of isomers) [Example 884, N-{(1R,2R)-2-[5-Chloro-2-(1-methoxy-7-morpholin-4-yl-6,7,8,9-tetrahydro-5H-benzocyclohepten-2-ylamino)-pyrimidin-4-ylamino]-cyclohexyl}-methanesulfonamide] |  |  | IC50 [1, 7]: < 100 nM; IC50 [2, 8]: > 10000 nM
 |  | 2-[5-Chloro-2-(4-oxo-1,2,3,4,5,6-hexahydro-benzo[b][1,5]diazocin-8-ylamino)-pyrimidin-4-ylamino]-N-methyl-benzenesulfonamide [Example 1304] | < 100 | 100 to 1000 | 
 |  | 1-[5-Chloro-2-(3-dimethylcarbamoylmethyl-8-methoxy-2,3,4,5-tetrahydro-1H-benzo[d]azepin-7-ylamino)-pyrimidin-4-ylamino]-cyclopentanecarboxylic acid methylamide [Example 1203] | 100 to 1000 | > 10000 | 
< 100 | > 10000 | COc1cc2c(cc1Nc1ncc(Cl)c(N[C@@H]3[C@H](C(N)=O)[C@H]4C=C[C@@H]3C4)n1)CCOC(=O)N2C [Example 1509, (1R,2R,3S,4S)-3-[5-Chloro-2-(3-methoxy-5-methyl-6-oxo-5,6,8,9-tetrahydro-7-oxa-5-aza-benzocyclohepten-2-ylamino)-pyrimidin-4-ylamino]-bicyclo[2.2.1]hept-5-ene-2-carboxylic acid amide] |  |  | 
 |  | COc1cc2c(cc1Nc1ncc(Cl)c(Nc3ccccc3S(=O)(=O)N(C)C)n1)CCN(CC(=O)N1CCC1)CC2 [Example 1201, 2-{2-[3-(2-Azetidin-1-yl-2-oxo-ethyl)-8-methoxy-2,3,4,5-tetrahydro-1H-benzo[d]azepin-7-ylamino]-5-chloro-pyrimidin-4-ylamino}-N,N-dimethyl-benzenesulfonamide] | < 100 | > 10000 | 
